ChEMBL document CHEMBL1124351, “Syntheses and bioevaluation of substituted dihydropyridines for pregnancy-interceptive activity in hamsters” (1989)

Assays:
[1] = target: T1, Progesterone receptor (Oryctolagus cuniculus) (UniProt P06186); experiment: Percent inhibition of [3H]- progesterone binding to rabbit uterine progesterone receptor, at 10e-5 M compound concentration; settings: at 10 µM
T1 sequence (whole entry): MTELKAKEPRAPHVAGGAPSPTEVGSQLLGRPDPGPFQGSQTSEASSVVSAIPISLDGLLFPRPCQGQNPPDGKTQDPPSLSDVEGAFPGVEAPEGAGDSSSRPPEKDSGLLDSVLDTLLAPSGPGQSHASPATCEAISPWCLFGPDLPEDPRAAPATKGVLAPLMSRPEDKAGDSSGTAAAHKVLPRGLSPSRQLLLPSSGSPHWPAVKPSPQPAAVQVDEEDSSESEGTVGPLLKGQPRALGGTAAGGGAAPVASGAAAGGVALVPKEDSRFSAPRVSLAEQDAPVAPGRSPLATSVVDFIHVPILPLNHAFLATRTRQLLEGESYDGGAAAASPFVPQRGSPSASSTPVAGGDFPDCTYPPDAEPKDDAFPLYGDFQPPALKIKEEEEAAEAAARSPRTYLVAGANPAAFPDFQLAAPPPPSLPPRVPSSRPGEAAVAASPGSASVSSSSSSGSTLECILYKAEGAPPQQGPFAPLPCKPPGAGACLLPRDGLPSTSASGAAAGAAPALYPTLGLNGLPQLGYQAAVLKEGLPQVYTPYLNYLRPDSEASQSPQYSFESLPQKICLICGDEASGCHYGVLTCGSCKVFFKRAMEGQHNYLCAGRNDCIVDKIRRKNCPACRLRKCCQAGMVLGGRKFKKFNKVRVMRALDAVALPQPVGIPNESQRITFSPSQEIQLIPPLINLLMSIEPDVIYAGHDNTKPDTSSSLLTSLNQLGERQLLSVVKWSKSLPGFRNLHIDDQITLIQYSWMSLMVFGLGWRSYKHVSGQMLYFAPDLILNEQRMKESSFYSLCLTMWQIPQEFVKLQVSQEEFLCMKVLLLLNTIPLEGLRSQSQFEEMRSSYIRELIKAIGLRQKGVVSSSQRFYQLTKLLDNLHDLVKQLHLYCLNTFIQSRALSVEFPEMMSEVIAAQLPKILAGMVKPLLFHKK

[2] = target: T1, Progesterone receptor (Oryctolagus cuniculus); experiment: Percent inhibition of [3H]- progesterone binding to rabbit uterine progesterone receptor, at 10e-6 M compound concentration; settings: at 1 µM
[3] = target: T1, Progesterone receptor (Oryctolagus cuniculus); experiment: Percent inhibition of [3H]- progesterone binding to rabbit uterine progesterone receptor, at 10e-8 M compound concentration; settings: at 0.01 µM
[4] = target: T1, Progesterone receptor (Oryctolagus cuniculus); experiment: Percent inhibition of [3H]- progesterone binding to rabbit uterine progesterone receptor, at 10e-9 M compound concentration; settings: at 0.001 µM
[5] = target: T1, Progesterone receptor (Oryctolagus cuniculus); experiment: Percent inhibition of [3H]- progesterone binding to rabbit uterine progesterone receptor, at 10e-7 M compound concentration; settings: at 0.1 µM
Cricetinae gen. sp. [6] = experiment: Activity against pregnancy-interceptive activity in Syrian golden hamsters, when administered, at a dose of 7.97 mmol/kg; type: functional, Cricetulus griseus
[7] = tested on: Progesterone receptor (Mesocricetus auratus); experiment: Percent inhibition of [3H]- progesterone binding to Syrian golden hamster uterine cytosol progesterone receptor, at 10e-5 M compound concentration; settings: at 10 µM
[8] = tested on: Progesterone receptor (Mesocricetus auratus); experiment: Percent inhibition of [3H]- progesterone binding to Syrian golden hamster uterine cytosol progesterone receptor, at 10e-7 M compound concentration; settings: at 0.1 µM
[9] = tested on: Progesterone receptor (Mesocricetus auratus); experiment: Percent inhibition of [3H]- progesterone binding to Syrian golden hamster uterine cytosol progesterone receptor, at 10e-8 M compound concentration; settings: at 0.01 µM
[10] = tested on: Progesterone receptor (Mesocricetus auratus); experiment: Percent inhibition of [3H]- progesterone binding to Syrian golden hamster uterine cytosol progesterone receptor, at 10e-9 M compound concentration; settings: at 0.001 µM
[11] = tested on: Progesterone receptor (Mesocricetus auratus); experiment: Percent inhibition of [3H]- progesterone binding to Syrian golden hamster uterine cytosol progesterone receptor, at 10e-6 M compound concentration; settings: at 1 µM
Cricetinae gen. sp. [12] = experiment: Activity against pregnancy-interceptive activity in Syrian golden hamsters, when administered, at a dose of 26.88 mmol/kg; type: functional
Cricetinae gen. sp. [13] = experiment: Activity against pregnancy-interceptive activity in Syrian golden hamsters, when administered, at a dose of 9.54 mmol/kg; type: functional
Cricetinae gen. sp. [14] = experiment: Activity against pregnancy-interceptive activity in Syrian golden hamsters, when administered, at a dose of 9.31 mmol/kg; type: functional
Cricetinae gen. sp. [15] = experiment: Activity against pregnancy-interceptive activity in Syrian golden hamsters, when administered, at a dose of 8.40 mmol/kg; type: functional, Cricetulus griseus
Cricetinae gen. sp. [16] = experiment: Activity against pregnancy-interceptive activity in Syrian golden hamsters, when administered, at a dose of 13.85 mmol/kg; type: functional

Row | SMILES | inhibition [1] | inhibition [2] | inhibition [3] | inhibition [4] | inhibition [5] | inhibition [7] | inhibition [8] | inhibition [9] | inhibition [10] | inhibition [11] | Activity (Cricetinae gen. sp. [6]) | Activity (Cricetinae gen. sp. [12]) | Activity (Cricetinae gen. sp. [13]) | Activity (Cricetinae gen. sp. [14]) | Activity (Cricetinae gen. sp. [15]) | Activity (Cricetinae gen. sp. [16])
1 | COC(=O)C1=C(C)N=C(C)/C(=C(/O)OC)C1c1ccc2nc(-c3ccc(OC)c(OC)c3)n(Cc3ccc(OC)c(OC)c3)c2c1 (stereo unspecified) | 8% | 10% | 0% | 0% | 8% | 16% | 5% | 5% | 2% | 10% | 4 | – | – | – | – | –
2 | COC(=O)Nc1nc2cc(C3C(C(=O)OC)=C(C)N=C(C)/C3=C(/O)OC)ccc2n1Cc1ccccc1 (stereo unspecified) | – | – | – | – | – | – | – | – | – | – | – | 3.58 mean | – | – | – | –
3 | COC(=O)C1=C(C)N=C(C)/C(=C(/O)OC)C1c1ccc2nc(-c3ccc4c(c3)OCO4)n(Cc3ccc4c(c3)OCO4)c2c1 (stereo unspecified) | 18% | 12% | 0% | 0% | 5% | 16% | 8% | 5% | 0% | 15% | – | – | – | – | 4.4 | –

More lines, main results first:

Row | inhibition [1] | inhibition [2] | inhibition [3] | inhibition [4] | inhibition [5] | inhibition [7] | inhibition [8] | inhibition [9] | inhibition [10] | inhibition [11] | SMILES | Activity (Cricetinae gen. sp. [6]) | Activity (Cricetinae gen. sp. [12]) | Activity (Cricetinae gen. sp. [13]) | Activity (Cricetinae gen. sp. [14]) | Activity (Cricetinae gen. sp. [15]) | Activity (Cricetinae gen. sp. [16])
4 | 36% | 26% | 10% | 4% | 16% | 34% | 15% | 13% | 9% | 31% | COC(=O)C1=C(C)N=C(C)/C(=C(/O)OC)C1c1ccc(C2C(C(=O)OC)=C(C)N=C(C)/C2=C(/O)OC)cc1 (stereo unspecified) | – | – | 6.2 | – | – | –
5 | 8% | 10% | 0% | 0% | 5% | 17% | 9% | 10% | 5% | 20% | COC(=O)C1=C(C)N=C(C)/C(=C(\O)OC)C1c1cc2cc(-c3c(C)oc(C)c3C(=O)OC)ccc2nc1Cl (stereo unspecified) | – | – | – | 1.8 | – | –
6 | 5% | 1% | 0% | 0% | 0% | 10% | 5% | 0% | 0% | 5% | COC(=O)C1=C(C)N=C(C)/C(=C(\O)OC)C1c1ccc(N)c([N+](=O)[O-])c1 (stereo unspecified) | – | – | – | – | – | 7
